In ChEMBL document CHEMBL6103573, “Discovery of novel thienopyridine indole derivatives as inhibitors of tubulin polymerization targeting the colchicine-binding site with potent anticancer activities” (Eur J Med Chem, 2025):
Activity calls are given as the source filed them. The rule behind the calls is not given here.

What was measured:
MGC-803 [1] = test: Antitumor activity against human MGC-803 cells xenografted in female BALB/c-nu nude mouse assessed as increase in apoptotic cells at 5 mg/kg, po administrated every other day for 11 times and measured after 21 days by TUNEL staining based assay; format: functional, organism-based; details: time 21.0 day
MGC-803 [2] = test: Antiproliferative activity against human MGC-803 cells assessed as survival rate at 2 nmol/L measured after 6 hrs by MTT assay relative to control; format: functional; details: read-out: Survival
HGC-27 [3] = test: Induction of apoptosis in human HGC-27 cells assessed as early apoptotic cells at 1.0 nmol/L incubated for 48 hrs by Annexin V-FITC/propidium iodide staining based flow cytometry analysis (reference value: 2.04 %); format: functional
MGC-803 [4] = test: Induction of apoptosis in human MGC-803 cells assessed as total apoptotic rate at 2 nmol/L incubated for 48 hrs by Annexin V-FITC/propidium iodide staining based flow cytometry analysis relative to control; format: functional
HUVEC = test: Anti-angiogenesis activity in HUVEC cells assessed as reduction in cell viability by measuring survival rate at 2 nmol/L incubated for 24 hrs by MTT assay relative to control; format: functional; details: Homo sapiens, read-out: Survival
HGC-27 [5] = test: Antiproliferative activity against human HGC-27 cells assessed as survival rate at 2 nmol/L measured after 6 hrs by MTT assay relative to control; format: functional; details: read-out: Survival
MGC-803 [6] = test: Induction of apoptosis in human MGC-803 cells assessed as increase in cleaved Caspase-3 expression at 0.25 to 2.0 nmol/L incubated for 48 hrs by Western blotting analysis; format: functional, cell-based; details: dose 0.25-2 nmol/L
Huh-7 = test: Antiproliferative activity against human Huh-7 cells assessed as inhibition of cell proliferation incubated for 48 hrs by MTT assay; format: functional, cell-based; details: Huh-7, 48 h
MDA-MB-231 = test: Antiproliferative activity against human MDA-MB-231 cells assessed as inhibition of cell proliferation incubated for 48 hrs by MTT assay; format: functional, cell-based; details: MDA-MB-231, 48 h
MGC-803 [7] = test: Induction of apoptosis in human MGC-803 cells incubated for 48 hrs by Annexin V-FITC/propidium iodide staining based flow cytometry analysis; format: functional, cell-based; details: dose 0.25-2 nmol/L
Tubulin (Homo sapiens) [8] = molecular target: T1, Tubulin (Homo sapiens) (UniProt P68371+Q9H4B7+P0DPH7+P68366+Q13509+Q71U36+P04350+Q3ZCM7+P07437+P68363+Q9BQE3+Q6PEY2+Q13885+Q9BVA1+Q9BUF5); test: Inhibition of tubulin (unknown origin) polymerization assessed as decrease in fluorescence intensity at 3 micromol/L in the presence of GTP by fluorescence microplate reader; format: protein-complex assay; details: dose 3.0 µmol/L
HGC-27 [9] = test: Induction of apoptosis in human HGC-27 cells assessed as late apoptotic cells at 0.5 nmol/L incubated for 48 hrs by Annexin V-FITC/propidium iodide staining based flow cytometry analysis (reference value: 3.70 %); format: functional
HGC-27 [10] = test: Induction of apoptosis in human HGC-27 cells assessed as increase in total apoptotic rate at 2 nmol/L incubated for 48 hrs by Annexin V-FITC/propidium iodide staining based flow cytometry analysis relative to control; format: functional
MGC-803 [11] = test: Anti-migratory activity against human MGC-803 cells assessed as reduction in wound healing area measured after 24 hrs by wound healing assay; format: functional, cell-based; details: dose 0.5-1 nmol/L
MGC-803 [12] = test: Antitumor activity against human MGC-803 cells xenografted in female BALB/c-nu nude mouse assessed as increase in cleaved PARP level in tumor at 5 mg/kg, po administrated […] for 11 times and measured after 21 days by immunohistochemical analysis; format: functional, organism-based; details: time 21.0 day
[13] = Toxicity in female BALB/c-nu nude mouse xenografted with human MGC-803 cells assessed as change in liver morphology at 5 mg/kg, po administrated every other day for 11 times and measured after 21 days by hematoxylin and eosin staining based analysis; format: organism-based; details: in vivo, 504 h, time 21 day
MGC-803 [14] = test: Induction of cell cycle arrest in human MGC-803 cells assessed as downregulation of Cdc25c level measured after 48 hrs by Western blot analysis; format: functional, cell-based; details: dose 0.25-2 nmol/L
HGC-27 [15] = test: Induction of apoptosis in human HGC-27 cells assessed as total apoptotic rate at 2 nmol/L incubated for 48 hrs by Annexin V-FITC/propidium iodide staining based flow cytometry analysis relative to control; format: functional
KYSE-450 = test: Antiproliferative activity against human KYSE-450 cells assessed as inhibition of cell proliferation incubated for 48 hrs by MTT assay; format: functional, cell-based; details: KYSE-450, 48 h
MGC-803 [16] = test: Induction of apoptosis in human MGC-803 cells assessed as increase in nuclei brightness at 0.25 to 2.0 nmol/L incubated for 48 hrs by DAPI staining based analysis; format: functional, cell-based; details: dose 0.25-2 nmol/L
[17] = molecular target: Tubulin beta (Homo sapiens) (UniProt P68371+Q9H4B7+Q13509+P04350+Q3ZCM7+P07437+Q13885+Q9BVA1+Q9BUF5+A6NNZ2); test: Competitive binding affinity to beta-tubulin colchicine binding site in human HGC-27 cells assessed as inhibition of EBI-beta-tubulin adduct band formation by measuring reduction in adduct band intensity preincubated for 2 hrs followed by EBI addition and measured after 2 hrs by Western blotting analysis; format: cell-based; details: dose 0.1-1 µmol/L, time 4.0 hrs
MGC-803 [18] = test: Induction of apoptosis in human MGC-803 cells assessed as late apoptotic cells at 1.5 nmol/L incubated for 48 hrs by Annexin V-FITC/propidium iodide staining based flow cytometry analysis (reference value: 2.22 %); format: functional
Tubulin (Homo sapiens) [19] = molecular target: T1, Tubulin (Homo sapiens); test: Disruption of microtubule network in human HGC-27 cells assessed as disruption of mitosis at 0.25 to 2.0 nmol/L incubated for 24 hrs by DAPI staining based fluorescence microscopic analysis; format: cell-based; details: dose 0.25-2 nmol/L
MGC-803 [20] = test: Induction of apoptosis in human MGC-803 cells assessed as increase in total apoptotic rate at 2 nmol/L incubated for 48 hrs by Annexin V-FITC/propidium iodide staining based flow cytometry analysis relative to control; format: functional
MGC-803 [21] = test: Antiproliferative activity against human MGC-803 cells assessed as cell viability at 1 to 2 nmol/L incubated for 48 hrs by MTT assay (reference value: 92 %); format: functional; details: dose 1-2 nmol/L, at 1 to 2 nM
MGC-803 [22] = test: Induction of apoptosis in human MGC-803 cells assessed as increase in cleaved Caspase-7 expression at 0.25 to 2.0 nmol/L incubated for 48 hrs by Western blotting analysis; format: functional, cell-based; details: dose 0.25-2 nmol/L
HGC-27 [23] = test: Antiproliferative activity against human HGC-27 cells assessed as survival rate at 2 nmol/L measured after 48 hrs by MTT assay relative to control; format: functional; details: read-out: Survival
HGC-27 [24] = test: Antiproliferative activity against human HGC-27 cells by MTT assay; format: functional, cell-based; details: dose 0.25-2 nmol/L
Tubulin (Homo sapiens) [25] = molecular target: T1, Tubulin (Homo sapiens); test: Disruption of microtubule network in human HGC-27 cells assessed as appearance of multinucleation at 0.25 to 2.0 nmol/L incubated for 24 hrs by DAPI staining based fluorescence microscopic analysis; format: cell-based; details: dose 0.25-2 nmol/L
MGC-803 [26] = test: Induction of apoptosis in human MGC-803 cells assessed as increase in cleaved Caspase-9 expression at 0.25 to 2.0 nmol/L incubated for 48 hrs by Western blotting analysis; format: functional, cell-based; details: dose 0.25-2 nmol/L
HGC-27 [27] = test: Antiproliferative activity against human HGC-27 cells assessed as reduction in cell viability incubated for 48 hrs by MTT assay; format: functional, cell-based; details: dose 0.25-10 nmol/L
MGC-803 [28] = test: Induction of apoptosis in human MGC-803 cells assessed as early apoptotic cells at 2.0 nmol/L incubated for 48 hrs by Annexin V-FITC/propidium iodide staining based flow cytometry analysis (reference value: 0.83 %); format: functional

With `CN(c1ccc2c(ccn2C)c1)c1nc(N2CCCC2)nc2sccc12` the Activity (MGC-803 [1]) was “Active”, the viability at 0.002 µM (MGC-803 [2]) was 86% and the Activity (HGC-27 [3]) was 11.52%. It also gave an Activity (MGC-803 [4]) of 63%, a viability at 0.002 µM (HUVEC) of 59.2% and a viability at 0.002 µM (HGC-27 [5]) of 83%. The Activity (MGC-803 [6]) was “Active”, the IC50 (Huh-7) was 2.09 nM and the IC50 (MDA-MB-231) was 2.58 nM. The Activity (MGC-803 [7]) was “Dose-dependent-effect”, the inhibition (Tubulin (Homo sapiens) [8]) was “Active” and the Activity (HGC-27 [9]) was 3.5%. The Activity (HGC-27 [10]) was 14%, the Activity (MGC-803 [11]) was “Dose-dependent-effect” and the Activity (MGC-803 [12]) was “Active”. For the same compound, the Activity [13] was “Non-toxic”, the Activity (MGC-803 [14]) was “Dose-dependent-effect” and the Activity (HGC-27 [15]) was 20%. The IC50 (KYSE-450) was 3.16 nM, the Activity (MGC-803 [16]) was “Active” and the Activity [17] was “Dose-dependent-effect”. The Activity (MGC-803 [18]) was 6.33%, the Activity (Tubulin (Homo sapiens) [19]) was “Active” and the Activity (MGC-803 [20]) was 60%. The Activity (MGC-803 [21]) was 39%, the Activity (MGC-803 [22]) was “Active” and the viability at 0.002 µM (HGC-27 [23]) was 48%. The Activity (HGC-27 [24]) was “Dose-dependent-effect”, the Activity (Tubulin (Homo sapiens) [25]) was “Active” and the Activity (MGC-803 [26]) was “Active”. For the same compound, the Activity (HGC-27 [27]) was “Dose-dependent-effect” and the Activity (MGC-803 [28]) was 54.93%.
